Results taken from patent US10874101B2, “Tolerance improving agent for plants” (PHYTOCHROME INC., priority 2014, dated 2020).
Where two headings read alike, the source gives them in different places.

Columns and labels:
HSFA2 gene [1] = assay: Expression level of HSFA2 gene in Arabidopsis (qPCR); type: in vivo, Arabidopsis thaliana; conditions: for fold induction at 10 nmol/cm3: Arabidopsis thaliana, 0.5 h, read-out: relative transcription level (fold), HSFA2 gene
Excerpt: (§1) Total RNA was extracted using RNeasy Plant Mini Kit (Quiagen), and cDNA was successively synthesized using RevaTra Ace Kit (TOYOBO CO., LTD.).
(§2) HSFA2 gene and DREB2A gene were quantified using SYBR Green qPCR Mix (TOYOBO CO., LTD.), LineGene Real-time PCR detection system (BioFlux).
(§3) The primers used for each gene expression analysis are as described below.
Arabidopsis (Arabidopsis thaliana, Columbia-0) was exposed to the compound shown in Table 2 in a gaseous state (concentration 10 nmol/cm^3) for 30 min (temperature 23° C.), and the expression level of HSFA2 gene was analyzed.
(§4) Arabidopsis was seeded in artificial soil material “Jiffy-7” (SAKATA SEED CORPORATION), cultured for 14 hr in light period/10 hr in dark period at 23° C. for 2-3 weeks and used.

photochemical system II = assay: Photosynthesis activity (Fv/Fm) of Arabidopsis; type: in vivo, Arabidopsis thaliana; conditions: gaseous state 25 nmol/cm^3, 120 min, 25° C., light 100 μmol/m^2·s, dark adaptation 5 min
Experimental: The photosynthesis activity was measured using the maximum quantum yield (Fv/Fm) of photochemical system II as an index. Test plant object was subjected to dark adaptation (for 5 min), and Fv/Fm was measured using photosynthesis measuring apparatus Junior-PAM (Walz). The measurement was performed at least three times for different sites of the leaf and the averaged numerical value was taken as photosynthesis activity.
Arabidopsis (Arabidopsis thaliana, Columbia-0) was exposed to the compound shown in Table 4 in a gaseous, state (concentration 25 nmol/cm^3) for 120 min (temperature 25° C.) in the presence of light (100 μmol/m^2·s), subjected to a dark adaptation treatment for 5 min, and photosynthesis activity (Fv/Fm) was measured.
as §4

[2] = system: Arabidopsis (Arabidopsis thaliana, Columbia-0); assay: Survival rate of Arabidopsis after high temperature treatment; type: in vivo; conditions: gaseous state 10 nmol/cm^3 for 120 min, then 120 min at 40-45° C. in light; relative to non-exposure sample as 100(%)
Experimental: Arabidopsis (Arabidopsis thaliana, Columbia-0) was exposed to the compound shown in Table 3 in a gaseous state (concentration 10 nmol/cm^3) for 120 min, left standing for 120 min in an environmental control chamber (manufactured by NIPPON MEDICAL & CHEMICAL INSTRUMENTS CO., LTD.) set to 40-45° C. and in the presence of light (100 μmol/m^2·s), and the survival rate after lapse of 3 days was measured.
as §4
In Table 3, the survival rate is a relative value with the survival rate of a non-exposure sample (sample left standing at 45° C. for 120 min without exposure to the compound) as 100(%).

HSFA2 gene [3] = assay: Expression level of HSFA2 gene in rice (qPCR); type: in vivo, Oryza sativa; conditions: rice (Nipponbare), gaseous state 10 nmol/cm^3, 30 min, 25° C.; non-exposure as 1
Experimental: as §1, §2, §3
(§5) Rice (Oryza sativa, Nipponbare) was exposed to (E)-2-hexenal in a gaseous state (concentration 10 nmol/cm^3) for 30 min (temperature 25° C.), and the expression level of HSFA2 gene and DREB2A gene was analyzed. As a result, the expression level of HSFA2 gene was 3.55-fold (relative transcription level with non-exposure to (E)-2-hexenal as 1), and the expression level of DREB2A was 3.93-fold (relative transcription level with non-exposure to (E)-2-hexenal as 1).
(§6) The rice was seeded in artificial soil material “Jiffy-7” (SAKATA SEED CORPORATION), cultured for 14 hr in light period/10 hr in dark period at 23° C. for 2-3 weeks and used.

HSP17.6-C = assay: Expression level of HSP gene HSP17.6-C in Arabidopsis (microarray); type: in vivo, Arabidopsis thaliana; conditions: gaseous state 10 nmol/cm^3, 30 min, 23° C., non-exposure as 1
Experimental: (§7) HSP gene was quantified by microarray analysis. The total RNA was extracted using RNeasy Plant Mini Kit (Quiagen), and double stranded cDNA was synthesized using Superscript Choice System (Life Technologies). cDNA was labeled with Cy3 by using NimbleGen One-color Labeling Kit (NimbleGen), and hybridized to DNA array (ATH6_60 mer_expr X4, NmibleGen) at 42° C. for 6 hr. DNA array was washed, Cy3 fluorescence intensity was measured by Axon GenePix 4000B scanner (NimbleGen) and quantified.
(§8) Arabidopsis (Arabidopsis thaliana, Columbia-0) was exposed to (E)-2-hexenal in a gaseous state (concentration 10 nmol/cm^3) for 30 min (temperature 23° C.), and the expression level of HSP genes (HSP17.6-C, HSP17.6-A) was analyzed.
as §4

HSP17.6-A = assay: Expression level of HSP gene HSP17.6-A in Arabidopsis (microarray); type: in vivo, Arabidopsis thaliana; conditions: gaseous state 10 nmol/cm^3, 30 min, 23° C., non-exposure as 1
Experimental: as §7, §8, §4

HSFA2 gene [4] = assay: Expression level of HSFA2 gene in tomato (qPCR); type: in vivo, Solanum lycopersicum; conditions: tomato (Microtom), gaseous state 10 nmol/cm^3, 30 min, 25° C.; non-exposure as 1
Experimental: as §1, §2, §3
Tomato (Solanum lycopersicum, Microtom) was exposed to (E)-2-hexenal in a gaseous state (concentration 10 nmol/cm^3) for 30 min (temperature 25° C.), and the expression level of HSFA2 gene was analyzed to find 20.2-fold (relative transcription level with non-exposure to (E)-2-hexenal as 1).
The tomato was seeded in artificial soil material “Jiffy-7” (SAKATA SEED CORPORATION), cultured for 14 hr in light period/10 hr in dark period at 23° C. for 2-3 weeks and used.

DREB2A gene = assay: Expression level of DREB2A gene in rice (qPCR); type: in vivo, Oryza sativa; conditions: rice (Nipponbare), gaseous state 10 nmol/cm^3, 30 min, 25° C.; non-exposure as 1
Experimental: as §1, §2, §3, §5, §6

[5] = Arabidopsis, gaseous state 10 nmol/cm^3, 30 min, 23° C., relative to acetonitrile as 1

| Compound | fold induction at 10 nmol/cm3 (HSFA2 gene [1]; [5]) | photosynthesis activity (Fv/Fm) (photochemical system II) | further results |
| --- | --- | --- | --- |
| CCCCCC(C)=O [2-heptanone, reference compound] | 1.1 |  |  |
| C=CC=O [2-propenal, reference compound] |  | 0.393 |  |
| C/C=C/C=O [(E)-2-butenal] |  | 0.726 | relative transcription level (fold), HSFA2 gene (HSFA2 gene [1]; [5]): 469 fold; survival rate (%) after 3 days [2]: 140% |
| CCCCCCC/C=C/C=O [(E)-2-decenal] |  | 0.753 |  |
| CCCC/C=C/C=O [(E)-2-heptenal] | 642 | 0.748 |  |
| CCC/C=C/C=O [(E)-2-hexenal] |  | 0.739 | relative transcription level, HSFA2 gene (HSFA2 gene [3]): 3.55 fold; Relative transcription level (fold) HSP17.6-C (HSP17.6-C): 45.9 fold; fold induction at 10 nmol/cm3 (HSFA2 gene [1]): 377; survival rate (%) after 3 days [2]: 170%; Relative transcription level (fold) HSP17.6-A (HSP17.6-A): 36.3 fold; relative transcription level, HSFA2 gene (HSFA2 gene [4]): 20.2 fold; relative transcription level, DREB2A gene (DREB2A gene): 3.93 fold |
| CCC/C=C/CO [(E)-2-hexenol, reference compound] | 0.735 |  |  |
| CCCCCC/C=C/C=O [(E)-2-nonenal] | 488 | 0.741 |  |
| CCCCC/C=C/C=O [(E)-2-octenal] | 777 | 0.732 |  |
| CC/C=C/C=O [(E)-2-pentenal] | 470 | 0.710 |  |
| CCC/C=C/C(C)=O [(E)-3-hepten-2-one] | 266 |  | survival rate (%) after 3 days [2]: 159% |
| CC/C=C\CCC=O [(Z)-4-heptenal] | 320 | 0.743 |  |
| CC/C=C\CCCCC=O [(Z)-6-nonenal] | 270 | 0.745 |  |
| CC#N [acetonitrile, reference compound] |  | 0.729 | fold induction at 10 nmol/cm3 (HSFA2 gene [1]): 1 |
| n-hexenal [reference compound] |  |  | relative transcription level (fold), HSFA2 gene (HSFA2 gene [1]; [5]): 7.9 fold |
